Here are results for 19 compounds from patent US9670175B2, “Protected succinates for enhancing mitochondrial ATP-production” (NEUROVIVE PHARMACEUTICALS AB, priority 2012, dated 2017).

Assay [1] concerns rotenone-inhibited intact human platelets. The experiment in a line: mitochondrial complex II screening assay (high-resolution respirometry). Particulars: for Mitochondrial Respiration: Complex II-dependent respiration, rotenone-inhibited intact human platelets. The format is cell-based. From the text: FIG. 1 is a schematic figure of mitochondrial complex II screening assay. […] In the assay, mitochondrial function in intact cells is repressed with the respiratory complex I inhibitor rotenone. Drug candidates are compared with endogenous substrates (succinate) before and after permeabilization of the plasma membrane to evaluate bioenergetic enhancement or inhibition.
Human platelets were isolated from venous blood collected in K2EDTA vials through two centrifugation steps in room temperature. After 10 min at 300 g, platelet rich plasma was collected and transferred to new vials. 5 min at 4600 g yielded a platelet pellet that was resuspended in an appropriate amount of plasma. The cell concentration was determined with a Swelab Alfa Hematocytometer (Boule Medical AB, Stockholm, Sweden).
Measurement of mitochondrial respiration was performed in a high-resolution oxygraph (Oxygraph—2 k, Oroboros Instruments, Innsbruck, Austria) at a constant temperature of 37° C. Platelets were suspended in the 2 mL glass chamber at a concentration of 200-400*10^6 cells/mL.
(1) Initial screen, complex II-effect, was performed with isolated intact platelets in a buffer containing 110 mM sucrose, HEPES 20 mM, taurine 20 mM, K-lactobionate 60 mM, MgCl2 3 mM, KH2PO4 10 mM, EGTA 0.5 mM, BSA 1 g/l, pH 7.1. After baseline respiration with endogenous substrates was established, complex I was inhibited with Rotenone […]. Drug candidates dissolved in DMSO were titrated in steps to 100 μM, 500 μM and 5 mM final concentration. Subsequently, cell membranes were permeabilised with digitonin (1 mg/1*10^6 pit). After stabilized respiration, Succinate 10 mM was added and after the respiration stabilized the experiment was terminated by addition of the complex III inhibitor Antimycin at final concentration 1 μg/mL and the residual respiration measured. […] In the assay, mitochondrial function in intact cells is repressed with the respiratory complex I inhibitor rotenone. Drug candidates are compared with endogenous substrates before and after permeabilization of the plasma membrane to evaluate bioenergetic enhancement or inhibition.
(1) The ideal compound stimulates respiration in rotenone-inhibited intact cells at low concentration in the CII-screening protocol without inhibitory effect on succinate stimulated respiration after permeabilization. After inhibition of respiration with mitochondrial toxins, respiration should be halted. Please refer to FIG. 1. and the listing below.

In another assay the test system is intact human platelets. The experiment in a line: mitochondrial convergent respiration screening assay (FCCP-uncoupled, high-resolution respirometry). The format is cell-based. The note with it: control disodium succinate, FIGS. 3A-3C. The text has this: FIG. 2 is a schematic figure of mitochondrial convergent respiration screening assay. It describes the protocol for evaluating the potency of novel cell-permeable mitochondrial substrates. In the assay, mitochondrial activity is stimulated by uncoupling the mitochondria with the protonophore FCCP. Drug candidates are titrated to obtain the level of maximum convergent (complex I- and complex II-derived) respiration. After rotenone addition, complex II-dependent stimulation is obtained. The complex III-inhibitor antimycin is added to evaluate non mitochondrial oxygen consumption. The reference substance is succinate.
Human platelets were isolated from venous blood collected in K2EDTA vials through two centrifugation steps in room temperature. After 10 min at 300 g, platelet rich plasma was collected and transferred to new vials. 5 min at 4600 g yielded a platelet pellet that was resuspended in an appropriate amount of plasma. The cell concentration was determined with a Swelab Alfa Hematocytometer (Boule Medical AB, Stockholm, Sweden). […]
(2) In the second protocol, convergent respiration, the same respiration buffer and cell concentrations as described above was used. […] The experiment was terminated by addition of 2 μM Rotenone and 1 μg/mL Antimycin and residual respiration measured. […]

Where [2] appears, read: titrated to 100 μM, 500 μM and 5 mM.
The mark [3] stands for this setting: previously known related compounds.

In the case of `CCN(CC)C(=O)COC(=O)CCC(=O)OC(C)OC(C)=O` (stereo not drawn) [Example 12, Succinic Acid 1-Acetoxy-Ethyl Ester Diethylcarbamoylmethyl Ester], the “Mitochondrial Respiration” value in assay [1] (setting [2]) is listed as “+”.

Turning to `CCOC(=O)OC(C)OC(=O)CCC(=O)OC(C)OC(C)=O` (stereo not drawn) [Example 16, Succinic Acid 1-acetoxy-ethyl Ester 1-ethoxycarbonyloxy-ethyl Ester], the “Mitochondrial Respiration” value in assay [1] (setting [2]) was “++”.

Turning to `CCOC(=O)OC(C)OC(=O)CCC(=O)OCC(=O)N(CC)CC` (stereo not drawn) [Example 11, Succinic Acid Diethylcarbamoylmethyl Ester 1-Ethoxycarbonyloxy-Ethyl Ester], the “Mitochondrial Respiration” value in assay [1] (setting [2]) is given as “(+)”.

On to `COC(=O)CCC(=O)OC` [Dimethyl succinate, reference compound], for which the “activity in the assays exemplified” value in assay [1] is “inactive”. The “Mitochondrial Respiration” value in assay [1] (setting [3]) was “−”.

`CCC(OC(C)=O)OC(=O)CCC(=O)OC(CC)OC(C)=O` (stereo not drawn) [Example 7, Succinic Acid bis-(1-acetoxy-propyl)ester]: in assay [1] (setting [2]), the “Mitochondrial Respiration” value is recorded as “++”.

For the compound `CC1(C)OC(=O)C(OC(=O)CCC(=O)OC2OC(C)(C)OC2=O)O1` (stereo not drawn) [Example 14, Succinic Acid bis-(2,2-dimethyl-5-oxo-[1,3]dioxolan-4-yl)ester], the “Mitochondrial Respiration” value in assay [1] (setting [2]) was “+++ (stimulation gradually increases and reaches maximum at ≦0.5 mM)”.

In the case of `CCN(CC)C(=O)COC(=O)CCC(=O)OCOC(C)=O` [Example 10, Succinic Acid Acetoxymethyl Ester Diethylcarbamoylmethyl Ester], the “Mitochondrial Respiration” value in assay [1] (setting [2]) is “++”.

As to `CCOC(=O)CCC(=O)OCC` [Diethyl succinate, reference compound], in assay [1], the “activity in the assays exemplified” value is “inactive”. In addition, the “Mitochondrial Respiration” value in assay [1] (setting [3]) was “−”.

On to `CC(=O)OC(C)OC(=O)CCC(=O)OC(C)OC(C)=O` (stereo not drawn) [Example 5, Succinic Acid bis-(1-acetoxy-ethyl)ester], for which the “Mitochondrial Respiration” value in assay [1] (setting [2]) was “+++ (stimulation gradually increases and reaches maximum at ≦0.5 mM)”. Besides, the “respiration (oxygen flux per unit) with stepwise titration compared to control” value in the assay with intact human platelets is given as “increase in respiration”.

On to `O=C1CCC(=O)OCOCOCO1` [Example 9, 1,3,5,7-Tetraoxa-cycloundecane-8,11-dione], for which, in assay [1] (setting [2]), the “Mitochondrial Respiration” value is given as “+”.

Take `COC(=O)CCC(=O)O` [Monomethyl succinate, reference compound]: the “activity in the assays exemplified” value in assay [1] was “inactive”. Besides, the “Mitochondrial Respiration” value in assay [1] (setting [3]) is “−”.

Regarding `CC(=O)OCOC(=O)CCC(=O)OCOC(=O)CCC(=O)OCOC(C)=O` [Example 18, Succinic Acid 3-acetoxymethoxycarbonyl-propionyloxymethyl Ester Acetoxymethyl Ester], the “Mitochondrial Respiration” value in assay [1] (setting [2]) is “+++ (stimulation gradually increases and reaches maximum at ≦0.5 mM)”.

As to `CCC(=O)OC(C)OC(=O)CCC(=O)OC(C)OC(=O)CC` (stereo not drawn) [Example 8, Succinic Acid bis-(1-propionyloxy-ethyl)ester], the “Mitochondrial Respiration” value in assay [1] (setting [2]) is reported as “++”.

On to `COC(=O)CCC(=O)OC(C)OC(C)=O` (stereo not drawn) [Example 6, Succinic Acid 1-Acetoxy-Ethyl Ester Methyl Ester], for which, in assay [1] (setting [2]), the “Mitochondrial Respiration” value is “+”.

Take `COC(=O)CCC(=O)OCOC(=O)C(C)(C)C` [Example 2, Succinic Acid 2,2-dimethyl-propionyloxymethyl Ester Methyl Ester]: the “Mitochondrial Respiration” value in assay [1] (setting [2]) is “++”.

Take `CC(=O)OC(C)OC(=O)CCC(=O)OCOC(=O)CCC(=O)OC(C)OC(C)=O` (stereo not drawn) [Example 17, Succinic Acid 3-(1-acetoxy-ethoxycarbonyl)-propionyloxymethyl Ester 1-acetoxy-ethyl Ester]: the “Mitochondrial Respiration” value in assay [1] (setting [2]) is “+++ (stimulation gradually increases and reaches maximum at ≦0.5 mM)”.

For the compound `COC(=O)CCC(=O)OCOC(C)=O` [Example 4, Succinic Acid Acetoxymethyl Ester Methyl Ester], in assay [1] (setting [2]), the “Mitochondrial Respiration” value is “++”.

In the case of `CC(=O)OCOC(=O)CCC(=O)OC(C)OC(C)=O` (stereo not drawn) [Example 13, Succinic Acid 1-Acetoxy-Ethyl Ester Acetoxymethyl Ester], the “Mitochondrial Respiration” value in assay [1] (setting [2]) was “+++ (stimulation gradually increases and reaches maximum at ≦0.5 mM)”. Moreover, in the assay with intact human platelets, the “respiration (oxygen flux per unit) with stepwise titration compared to control” value is “increase in respiration”.

In the case of `COC(=O)C(OC)OC(=O)CCC(=O)OC(OC)C(=O)OC` (stereo not drawn) [Example 15, Succinic Acid bis-(methoxy-methoxycarbonyl-methyl)ester], in assay [1] (setting [2]), the “Mitochondrial Respiration” value was “(+)”.
